Results taken from patent US20180094051A1, “METHOD FOR INHIBITING LYMPHANGIOGENESIS BY ADMINISTRATION OF AN INHIBITOR OF THE CXCL12 PATHWAY” (Tsinghua University, priority 2012, published 2018).
“Also recorded” adds a separate entry of the source.

Key:
[1] = system: newly formed lymphatic vessels; experiment: In vivo Matrigel plug assay (lymphangiogenesis); design: species or system BALB/c mice; settings: CXCL12 500 ng/mL; antibodies 10 μg/mL, AMD3100 50 μg/mL; 8 days
Experimental: Matrigel plug assay was conducted as previously reported^[44]. BALB/C mice (5 weeks old, female, purchased from Vital River Laboratories, Beijing) were divided into five groups, five mice each group. Growth factor-free Matrigel (9-10 mg/mL, purchased from Becton-Dickinson Biosciences) containing 20 ng/mL, 100 ng/mL, 500 ng/mL of chemokine CXCL12 (purchased from R&D Systems), 500 ng/mL of VEGF-C (purchased from R&D Systems), and PBS control, respectively, was injected subcutaneously into the BALB/c mice along the abdominal midline. The Matrigel formed a solid plug in the mice, and the agent was slowly released from the Matrigel to stimulate new mouse lymphatic vessels to be formed and grown into the Matrigel. 8 days later, the Matrigel was removed carefully.
After being washed in PBS, the Matrigel were fixed in 30% sucrose solution at 4° C. overnight. Frozen sections in a thickness of about 10 μm were prepared and stored at −20° C. The frozen sections were blocked with a blocking solution in a humidified chamber at room temperature for 1 hour. The blocking solution was PBS containing 10% normal goat serum. […]
The newly formed lymphatic vessels in the Matrigel were detected by immunofluorescence, and observed and imaged under a laser confocal microscope (Nikon A1) using the imaging and statistic software NIS-Elements AR 3.0. […]

[2] = system: mouse lymphatic endothelial cells; experiment: Cell chemotaxis assay (Transwell); type: cell-based; settings: antibodies 5 μg/mL, AMD3100 25 μg/mL, 6 hours; for effect on migration of mouse lymphatic endothelial cells induced by CXCL12: CXCL12 100 ng/mL, LY294002 and U0126 10 μM, pretreated 30 minutes
Experimental: The migration ability of mouse lymphatic endothelial cells was assessed using 8-μm-pore Transwell bucket (filter membrane) (purchased from Costar). The transwell bucket was placed into a 24-well plate. Mouse primary lymphatic endothelial cells (mLECs) at passage 2 or 3 in good conditions were selected, and divided into five groups, four parallel samples for each group and approximately 2×10^4 cells for each parallel sample. The cells were digested with trypsin, resuspended in 200 μL of fresh serum-free endothelial cell culture medium (ECM, purchased from Sciencell), and then seeded into the inner chambers of the Transwell bucket. To each outer chamber was added 800 μL of serum-free endothelial cell culture medium mixed with 1 ng/mL, 20 ng/mL, 100 ng/mL of chemokine CXCL12 (purchased from R&D Systems), 100 ng/mL of VEGF-C (purchased from R&D Systems) and PBS control, respectively. The culture plate was placed into an incubator and incubated under 5% CO2 at 37° C. for 6 hours.
After taking out the culture plate, the Transwell bucket was fixed in 4% paraformaldehyde solution for 15 minutes. The Transwell bucket was rinsed twice in PBS, stained with 0.1% crystal violet solution for 30 minutes, and then washed with PBS to remove the non-specifically bound crystal violet. The cells inside Transwell membrane were wiped off gently with medical cotton swabs. Note that the cells on the edge of the membrane should also be wiped off to avoid affecting cell counting. The Transwell bucket was placed under a microscope (Olympus IX71 microscope), and the cells migrated from the outer membrane were observed by microscopy. 8 fields per group were photographed randomly to count the cells.
The migration ability of mouse lymphatic endothelial cells was assessed using 8-μm-pore Transwell bucket (purchased from Costar). The bucket was placed into a 24-well plate. Mouse primary lymphatic endothelial cells (mLECs) at passage 2 or 3 in good conditions were selected, and divided into six groups, four parallel samples for each group, and approximately 2×10^4 cells for each parallel sample. The cells were digested with trypsin and resuspended in 200 μL, of fresh serum-free endothelial cell culture medium (ECM, purchased from Sciencell). The cells were pretreated for 30 minutes with dimethyl sulfoxide (DMSO) as a control, protein kinase B (Akt) antagonist LY294002 (10 μM, purchased from Sigma-Aldrich) and extracellular signal-regulated kinase (Erk) antagonist U0126 (10 μM, purchased from Sigma-Aldrich), respectively, and then seeded into the inner chambers of the Transwell bucket. […] The cells were stained and the number of the migrated cells was counted.
The migration ability of mouse lymphatic endothelial cells was detected by using 8-μm-pore Transwell bucket (purchased from Costar). […]

chemokine receptor CXCR4 = experiment: Immunoblotting of CXCR4 in lymphatic endothelial cells (incl. HIF-1α RNA interference); type: cell-based; settings: mouse lymphatic endothelial cells, 100 ng/mL VEGF-C, 6, 12 and 24 hours
Experimental: Mouse primary lymphatic endothelial cells at passage 2 or 3 in good condition were selected, and starved overnight by replacing the culture medium with a fresh medium free of serum and growth factors. Then the medium was replaced with a medium containing 100 ng/mL of VEGF-C. The cells were incubated for 6, 12 and 24 hours, respectively, and then trypsinized and collected by centrifugation for detecting the expression level of chemokine receptor CXCR4 in the cells by immunoblotting.
The samples were subjected to SDS-PAGE (the concentration of separation gel was 15%). Protein bands were transferred to polyvinylidene difluoride (PVDF) membrane (purchased from Millipore) at 100 mA for 3 hours using an electroblotting device in ice bath. TBST buffer (20 mM Tris, pH7.4, 150 mM NaCl, 0.1% Tween-20) was formulated for preparing blocking solution, primary antibody solution and secondary antibody solution. The PVDF membrane was further incubated in blocking solution containing 5% skim milk for 1 hour at room temperature with gentle shaking. The membrane was then washed with TBST for 5 times, 5 minutes each. […]
The siRNA for interfering with the chemical synthesis of HIF-1α was purchased from Santa Cruz Biotechnology, and the negative control siRNA was purchased from GenePharma, Shanghai. […] HIF-1α knock-down efficiency was detected by immunoblotting. […]

c1cc(CN2CCCNCCNCCCNCC2)ccc1CN1CCCNCCNCCCNCC1 [AMD3100]
effect on lymphangiogenesis induced by CXCL12 in Matrigel plug [1]: could significantly reduce the activity of chemokine CXCL12 | effect on migration of mouse lymphatic endothelial cells induced by CXCL12 [2]: could inhibit the migration of mouse lymphatic endothelial cells induced by CXCL12; also recorded: activity of chemokine CXCL12 was inhibited | effect on activity of VEGF-C (migration of mouse lymphatic endothelial cells) ([2]; VEGF-C 100 ng/mL): had no effect on the activity of growth factor VEGF-C; also recorded: the activity of VEGF-C was not affected

N#CC(=C(/N)Sc1ccccc1N)/C(C#N)=C(\N)Sc1ccccc1N [U0126]
effect on migration of mouse lymphatic endothelial cells induced by CXCL12 [2]: inhibited the lymphatic endothelial cell migration induced by chemokine CXCL12

B1: CXCR4: Printed in b110 as the treating agent; apparently a misprint for VEGF-C (protein)
chain: MEPISVSIYTSDNYSEEVGSGDYDSNKEPCFRDENVHFNRIFLPTIYFIIFLTGIVGNGLVILVMGYQKKLRSMTDKYRLHLSVADLLFVITLPFWAVDAMADWYFGKFLCKAVHIIYTVNLYSSVLILAFISLDRYLAIVHATNSQRPRKLLAEKAVYVGVWIPALLLTIPDFIFADVSQGDISQGDDRYICDRLYPDSLWMVVFQFQHIMVGLILPGIVILSCYCIIISKLSHSKGHQKRKALKTTVILILAFFACWLPYYVGISIDSFILLGVIKQGCDFESIVHKWISITEALAFFHCCLNPILYAFLGAKFKSSAQHALNSMSRGSSLKILSKGKRGGHSSVSTESESSSFHSS
expression level of CXCR4 (chemokine receptor CXCR4): could upregulate the expression level of CXCR4
